Experimental findings from patent US20190216751A1, “Compositions and Methods for the Treatment and Prevention of Cancer” (California State University Northridge, priority 2017, published 2019) are described below.

The test system of test [1] is 4T1, 67NR, MCF10AT1k, MCF10CA1h and MCF10CA1a. The test can be described thus: Cell viability at 100 μM GC7, phase-contrast imaging across cell lines. The class given is cell-based, mouse, human. The settings on record: 100 μM GC7, 48 hours. On the procedure:
There are currently two drugs available that can target the activation of eIF5A. Its role of hypusination/activation is spermidine dependent and is carried out in two subsequent steps by the enzymes deoxyhypusine synthase (DHPS) catalyzing the first step and deoxyhypusine hydroxylase (DOHH) catalyzing the second step. The efficacy and potency of the two drugs in the selected cell lines; GC7 (N1-Guanyl-1,7-diaminoheptane)—a selective inhibitor of DHPS, and CPX (Ciclopirox olomine)—which chelates iron that is important for the activity of DOHH (FIG. 2A) are shown. The concentration that determines a 50% decrease in cell viability is noted by the IC50 values on each graph for each drug. These cells were imaged when treated with the second highest concentration of GC7 at 100 μM to show a decrease in cell viability after 48 hours of treatment (FIG. 2B). […] From this point forward, all experiments performed used only GC7 as the selected drug to target hypusinated eIF5A.
The inventors sought to determine if the decrease in cell viability is due to the inhibition of post translational modification of eIF5A. To test this, all cell lines were treated with GC7 at 100 μM for 48 hours—which were the time point and concentration at which a decrease in cell viability was seen (FIG. 2B). […]

Test [2] has as its system human triple negative breast cancer cells. The test can be described thus: Cell proliferation assay and hypusine western blot, response to GC7. The note with it: FIGS. 2A and 3A. The class given is cell-based. On the procedure: Cell lines were plated in a 6 well plate at 1e5 cells/mL and left to attach overnight. Cells were then treated if necessary then lysed using Radioimmunoprecipitation assay (RIPA) buffer containing phosphatase and protease inhibitors and left to rotate at 4° C. for at least 3 hours. Lysates were then cleared by centrifugation at 12,000 RPM for 10 minutes at 4° C. Protein concentrations were determined using Bradford Assay. 4-12% Bis-Tris […] gels were used to run protein lysates at 20 μg of protein that were stained with NuPage LDS Sample Buffer. Gels were then transferred onto nitrocellulose membranes and exposed to primary antibody solutions at the following concentrations for each indicated antibody. PEAK1 (Millipore 1:400), E-cadherin (Cell Signaling 1:1,000), Hypusine (Thermo Scientific 1:1,000), eIF5A (Thermo Scientific 1:1,000) and β-actin (Pro-Sci 1:1,000). Secondary antibodies were used at a 1:5,000-1:10,000 dilution. Band intensity graphs were quantified using Fiji software after image thresholding.
The CellTiter 96® AQueous One Solution (Promega) was used to perform cell proliferation experiments. Cells were plated at 5e3 cells/mL at 200 μL/well in a 96-well plate and allowed to attach overnight. […] Absorbance readings were measured at 490 nm wavelength at 1.5, 2 and 3 hours (absorbance is directly proportional to the number of living cells).
A general note: In western blotting, separated proteins are transferred to a membrane and probed.

Test [3] relates to 4T1 cells. The test can be described thus: Cell proliferation assay (CellTiter 96 AQueous One, MTS). The class given is cell-based, mouse. The text has this: (§1) The next research questions revolved around asking how TGFβ is regulating eIF5A and what other proteins might be involved to completely block TGFβ-induced EMT. This led to histone deacetylase enzyme 6 (HDAC6). HDAC6 has been previously reported to be responsible for the deacetylation of eIF5A in the nucleus in order to make it readily available for hypusination and later transport out in the cytoplasm for functioning as a translation factor. To determine if it were possible to further increase the efficacy or potency of GC7, the inventors co-treated with Tubastatin A (an HDAC6 inhibitor) in 4T1 and 67NR cells as well as MDA-MB-468 cells which initially were not very sensitive to GC7. Triple negative human breast cancer cell line, […], was also used to see if another cell line representative of this breast cancer subtype was sensitive towards DHPS and HDAC6 inhibition. (FIGS. 5A and 5B). Here, are shown cell viability graphs for these four cell lines pretreated with GC7 at 1 μM and after 12 hours were exposed to various concentrations of Tubastatin A (TubA) ranging from 0.1 nM to 100 μM. […] MDA-MB-468 and BT549 cells remained to be insensitive to TubA with or without GC7 pretreatment (FIG. 5A). Next, the inventors performed the opposite cell viability experiment in which these four cell lines were pretreated with TubA at 1 μM and then exposed these cells to various concentrations of GC7 ranging from 0.1 nM to 1 mM. […] 4T1 cells were treated with TubA at 10 μM, GC7 at 10 μM or both drugs simultaneously for 48, 72 and 96 hours. […] To test this, the inventors looked further into the changes of eIF5A localization when treating with TubA, GC7 or both drugs simultaneously. In FIG. 5D is shown immunofluorescence staining of 4T1 cells treated with TubA at 10 μM, GC7 at 10 μM or both drugs at those same concentrations for 48 hours. […] DAPI was used to stain the nuclei shown in the […] channel and phase-contrast images are shown as reference (FIG. 5D). […] Protein lysates were also collected at the same time point described in FIG. 5D. Twenty μg of protein for each condition was run on a Bis-Tris […] gel then transferred onto a nitrocellulose membrane before staining total protein using Ponceau S (FIG. 5E).
(§2) The CellTiter 96® AQueous One Solution (Promega) was used to perform cell proliferation experiments. Cells were plated at 5e3 cells/mL at 200 μL/well in a 96-well plate and allowed to attach overnight. Cells were then treated with indicated drugs the next day at various concentrations. After 72 hours of drug treatments, 40 μL of AQueous One solution was added to each well. Absorbance readings were measured at 490 nm wavelength at 1.5, 2 and 3 hours (absorbance is directly proportional to the number of living cells).

The test system of test [4] is 67NR cells. The test is described as above. The class given is cell-based, mouse.
Description: as §1, §2

Test [5] relates to MCF10A. The test is described as above. The class given is cell-based, human. The note with it: non-malignant mammary cell line. As to the method:
as §2

Setting [6] is: TubA 1 μM pretreatment, GC7 0.1 nM to 1 mM.

Regarding `N=C(N)NCCCCCCCN.O=S(=O)(O)O` [GC7, N1-Guanyl-1,7-diaminoheptane], the “decrease in cell viability” value in test [1] is on record as “largest decrease in cell viability”. Besides, the “sensitivity to GC7 treatment” value in test [2] is reported as “insensitive”; in test [5], “one of the most sensitive”. The “efficacy after GC7 treatment (cell viability)” value in test [3] (72 hours, 0.1 nM→1 mM) is “largest efficacy”; in test [4] (72 hours, 0.1 nM→1 mM), “largest efficacy”. Further, the “change of potency of GC7 by TubA pretreatment (cell viability)” value in test [3] (setting [6]) is on record as “subtly decreased”; in test [4] (setting [6]), “this effect was not seen in the three other cell lines”.
